According to US10800789B2, “Antiviral compounds” (Gilead Pharmasset LLC, priority 2012, dated 2020):
Where two headings read alike, the source gives them in different places.

Tests used:
[1] = tested on: stable HCV 1b RLuc replicon cells (dicistronic genotype 1b Con1 replicon); assay: Renilla luciferase HCV replicon reporter assay, genotype 1b; assay type: cell-based; settings: Hepatitis C virus, 72 h, stable 1b Con1 RLuc replicon cells, 72 hours; read-out: 1b
Method in brief: (§1)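 First, 3-fold serial dilutions of compound went onto replicon cells, DMSO serving as no-inhibition control and ITMN-191 at >100×EC50 as positive control. Next came 72 h incubation, lysis and Renilla luciferase measurement. Finally, EC50 was calculated by non-linear regression; replicons covered genotypes 1a H77, 1b Con1, 2a JFH-1 (L31) and J6-NS5A chimera (M31).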

[2] = tested on: stable HCV 1a RLuc replicon cells (dicistronic genotype 1a H77 replicon); assay: Renilla luciferase HCV replicon reporter assay, genotype 1a; assay type: cell-based; settings: Hepatitis C virus, 72 h, stable 1a H77 RLuc replicon cells
Method in brief: as §1

[3] = tested on: stable HCV 2a JFH-1 Rluc replicon cells (L31 present in NS5A); assay: Renilla luciferase HCV replicon reporter assay, genotype 2a JFH-1; assay type: cell-based; settings: Hepatitis C virus
Method in brief: as §1

[4] = tested on: NS5A chimeric genotype 2a JFH-1 replicon with genotype 2a J6 strain NS5A gene (M31 present); assay: Replicon assay, genotype 2a J6 NS5A chimera; assay type: cell-based, HCV; settings: Hepatitis C virus
Method in brief: (§2)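 EC50 was fitted by non-linear regression to Renilla luciferase signal after 72 h of exposure to 3-fold serially diluted compound (10 mM DMSO stocks). Controls were DMSO (none) and ITMN-191 above 100×EC50 (full). Chimeric 2a replicons were used either stable or transiently transfected into Huh-Lunet cells.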

[5] = tested on: NS5A chimeric genotype 2a JFH-1 replicon with genotype 2b MD2b-1 strain NS5A gene (M31 present); assay: Replicon assay, genotype 2b NS5A chimera; assay type: cell-based, HCV; settings: Hepatitis C virus
Method in brief: as §2

[6] = tested on: NS5A chimeric genotype 1b Con1 replicon with genotype 3a S52 strain NS5A gene; assay: Replicon assay, genotype 3a NS5A chimera; assay type: cell-based, HCV; settings: Hepatitis C virus
[7] = tested on: NS5A chimeric genotype 1b Con1 replicon with genotype 4a ED43 strain NS5A gene; assay: Replicon assay, genotype 4a NS5A chimera; assay type: cell-based, HCV; settings: Hepatitis C virus
[8] = IV and PO single dose pharmacokinetic studies in SD rats; assay type: in vivo, male Sprague-Dawley (SD) rats; settings: Sprague-Dawley, rat, plasma, male SD rats, PO 2 mg/kg vs IV infusion 1 mg/kg, read-out: Rat % F
Procedure: IV and PO Single Dose Pharmacokinetic Studies in SD Rats:
The pharmacokinetics of selected compounds was characterized in male Sprague-Dawley (SD) rats (250-300g). In this study, two groups of naïve purebred SD rats (N=3 per group, fasted over night) received the selected compound either as an intravenous (IV) infusion (1 mg/kg over 30 minutes) via the jugular vein or by oral gavage (2 mg/kg). The intravenous (IV) dosing vehicle was 5% ethanol, 35% polyethylene glycol 400 (PEG 400) and 60% water pH 2.0. The oral dosing vehicle was 5% ethanol, 55% PEG 400 and 40% citrate buffer pH 2.2.
Serial blood samples (approximately 0.3 mL each) were collected from jugular vein or other suitable vein at specified time points. For the IV infusion group, the blood samples were collected predose and at 0.25, 0.48, 0.58, 0.75, 1.5, 3, 6, 8, 12 and 24 hours after the start of infusion. For the oral group, the blood samples were collected predose and at 0.25, 0.50, 1, 2, 4, 6, 8, 12 and 24 hours after dosing. The blood samples were collected into VacutainerγM tubes containing EDTA-K3 as the anti-coagulant and were centrifuged at approximately 4° C. to obtain plasma. The plasma samples were stored at −20° C. until analysis by LC/MS/MS.
A bioanalytical method utilizing high performance liquid chromatography coupled to tandem mass spectrometry (LC/MS/MS) was developed for analysis of the selected compound in rat plasma. Detection was performed using selected reaction monitoring (SRM); Ions representing the precursor (M+H)^+ species was selected in quadrupole 1 (Q1) and collided with argon gas in the collision cell (Q2) to generate specific product ion, which was subsequently monitored by quadrupole 3 (Q3). Standard curve and quality control samples were prepared in male rat plasma and processed in the same way as the test samples to generate quantitative data.
Pharmacokinetic parameters were generated using non-compartmental pharmacokinetic analysis (Phoenix WinNonlin, version 6.3). Values below the lower limit of quantification (LLOQ) were assigned a value of zero if predose and treated as missing thereafter. Area under the curve (AUC) was calculated using the linear trapezoidal rule. The oral bioavailability (% F) was determined by comparison of the area under the curve (AUC) of the compound and/or a metabolite generated in plasma following oral administration to that generated following intravenous administration.

[9] = read-out: 2a JFH (nM), genotype 2a JFH-1 replicon (L31 in NS5A), stable cells
[10] = read-out: 2a JFH, stable 2a JFH-1 Rluc replicon cells, L31 in NS5A, activity range
[11] = read-out: 2a J6 (t) (nM), genotype 2a J6 NS5A chimeric replicon (M31), transiently transfected (t) into Huh-Lunet cells
[12] = read-out: 2a J6 (t), transiently transfected (t) into Huh-Lunet cells, activity range
[13] = 2BS, read-out: 2b (s), stably replicating replicon cells (s), activity range
[14] = read-out: 2b (s) (nM), genotype 2b MD2b-1 NS5A chimeric replicon (M31), stably replicating replicon cells (s)
[15] = read-out: 3a (s) (nM), genotype 3a NS5A chimeric replicon, stable replicon cells (s)
[16] = read-out: 3a (s), (s), activity range
[17] = read-out: 4a (s) (nM), genotype 4a NS5A chimeric replicon, stable replicon cells (s)
[18] = read-out: 4a (s), (s), activity range
[19] = read-out: 2b (t) (nM), genotype 2b MD2b-1 NS5A chimeric replicon (M31), transiently transfected (t)
[20] = read-out: 2b (t), transiently transfected (t) into Huh-Lunet cells, activity range
[21] = read-out: 2a J6 (s) (nM), genotype 2a J6 NS5A chimeric replicon (M31), stably replicating replicon cells (s)
[22] = read-out: 2a J6 (s), stably replicating replicon cells (s), activity range

SMILES | EC50 [1] [nM] | EC50 [2] [nM] | EC50 ([2]; activity range) [nM] | EC50 [3, 9] [nM] | EC50 [3, 10] [nM] | EC50 [4, 11] [nM] | EC50 [4, 12] [nM] | EC50 [5, 13] [nM] | EC50 [5, 14] [nM] | EC50 [6, 15] [nM] | EC50 [6, 16] [nM] | EC50 [7, 17] [nM] | EC50 [7, 18] [nM] | bioavailability [8] [%] | EC50 [5, 19] [nM] | EC50 [5, 20] [nM] | EC50 [4, 21] [nM] | EC50 [4, 22] [nM]
CC[C@H]1CC[C@@H](c2ncc(-c3ccc4c(c3)COc3cc5c(ccc6nc([C@@H]7CC[C@H](CC)N7C(=O)[C@@H](NC(=O)OC)C7CCOCC7)[nH]c65)cc3-4)[nH]2)N1C(=O)[C@@H](NC(=O)OC)C(C)C [IG] | 0.035 | 0.027 | < 0.1 | 0.034 | < 0.1 | 0.122 | 0.1 to 0.999 | 0.1 to 0.999 | 0.25 | 0.787 | 0.1 to 0.999 | 0.025 | < 0.1 | 28.2 | – | – | – | –
COC(=O)NC(C(=O)N1[C@@H](C)CC[C@H]1c1nc2ccc3cc4c(cc3c2[nH]1)OCc1cc(-c2cnc([C@@H]3CC[C@H](C)N3C(=O)[C@@H](NC(=O)OC)C3CCOCC3)[nH]2)ccc1-4)C(C)C (stereo partly drawn) [EA, Methyl(1-{(2S,5S)-2-[9-(2-{(2S,5S)-1-[(2S)-2-[(methoxycarbonyl)amino]-2-(tetra hydro-2H-pyran-4-yl)acetyl]-5-methylpyrrolidin-2-yl}-1H-imidazol-5-yl)-1,11-dihydroisochromeno[4′,3′:6,7]naphtho[1,2-d]imidazol-2-yl]-5-methylpyrrolidin-1-yl}-3-methyl-1-oxobutan-2-yl)carbamate] | 0.028 | 0.018 | < 0.1 | 0.015 | < 0.1 | 0.035 | < 0.1 | < 0.1 | 0.088 | 0.035 | < 0.1 | 0.019 | < 0.1 | 10.2 | 0.037 | < 0.1 | – | –
COC(=O)N[C@H](C(=O)N1[C@H](c2ncc(-c3ccc4c(c3)COc3cc5c(ccc6nc([C@@H]7C[C@@H]8CCC[C@@H]8N7C(=O)[C@@H](NC(=O)OC)C7CCOCC7)[nH]c65)cc3-4)[nH]2)C[C@@H]2CCC[C@@H]21)C(C)C [IT] | 0.017 | 0.012 | < 0.1 | 0.017 | < 0.1 | – | – | < 0.1 | 0.064 | 0.032 | < 0.1 | 0.004 | < 0.1 | 16.2 | – | – | 0.007 | < 0.1
CC[C@H]1CC[C@@H](c2nc3ccc4cc5c(cc4c3[nH]2)OCc2cc(-c3cnc([C@@H]4C[C@@H]6CCC[C@@H]6N4C(=O)[C@@H](NC(=O)OC)C(C)C)[nH]3)ccc2-5)N1C(=O)[C@@H](NC(=O)OC)C1CCOCC1 [IU] | 0.022 | 0.016 | < 0.1 | 0.02 | < 0.1 | – | – | 0.1 to 0.999 | 0.119 | 0.098 | < 0.1 | 0.004 | < 0.1 | 26.5 | – | – | 0.028 | < 0.1
COC(=O)N[C@H](C(=O)N1[C@@H](C)CC[C@H]1c1ncc(-c2ccc3c(c2)COc2cc4c(ccc5nc([C@@H]6CC[C@H](C)N6C(=O)[C@@H](NC(=O)OC)[C@@H](C)OC(F)F)[nH]c54)cc2-3)[nH]1)C(C)C [FM, Methyl {(2S)-1-[(2S,5S)-2-(5-{2-[(2S,5S)-1-{(2S,3R)-3-(difluoromethoxy)-2-[(methoxycarbonyl)amino]butanoyl}-5-methylpyrrolidin-2-yl]-1,11-dihydroisochromeno[4′,3′:6,7]naphtho[1,2-d]imidazol-9-yl}-1H-imidazol-2-yl)-5-methylpyrrolidin-1-yl]-3-methyl-1-oxobutan-2-yl}carbamate] | 0.018 | 0.009 | < 0.1 | 0.019 | < 0.1 | – | – | 0.1 to 0.999 | 0.259 | 0.061 | < 0.1 | 0.007 | < 0.1 | 22.7 | – | – | – | –
COC(=O)N[C@H](C(=O)N1C[C@@H](C)C[C@H]1c1nc2ccc3cc4c(cc3c2[nH]1)OCc1cc(-c2cnc([C@@H]3CC[C@H](C)N3C(=O)[C@@H](NC(=O)OC)[C@@H](C)OC)[nH]2)ccc1-4)C(C)C [GA] | 0.035 | 0.019 | < 0.1 | 0.018 | < 0.1 | 0.064 | < 0.1 | 0.1 to 0.999 | 0.245 | 0.063 | < 0.1 | 0.016 | < 0.1 | 3.2 | – | – | – | –
CC[C@H]1CC[C@@H](c2ncc(-c3ccc4c(c3)COc3cc5c(ccc6nc([C@@H]7CC[C@H](CC)N7C(=O)[C@@H](NC(=O)OC)C7CCOCC7)[nH]c65)cc3-4)[nH]2)N1C(=O)[C@@H](NC(=O)OC)C1CCOCC1 [IE] | 0.054 | 0.042 | < 0.1 | 0.035 | < 0.1 | 0.042 | < 0.1 | < 0.1 | 0.065 | 0.198 | 0.1 to 0.999 | 0.039 | < 0.1 | 2.2 | – | – | – | –
COC(=O)N[C@H](C(=O)N1C[C@@H](C)C[C@H]1c1nc2ccc3cc4c(cc3c2[nH]1)OCc1cc(-c2cnc([C@@H]3CC[C@H](C)N3C(=O)[C@@H](NC(=O)OC)[C@@H](C)OC)[nH]2)ccc1-4)[C@@H](C)OC [DY, Methyl [(2S,3R)-3-methoxy-1-{(2S,5S)-2-[9-(2-{(2S,5S)-1-[N-(methoxycarbonyl)-O-methyl-L-threonyl]-5-methylpyrrolidin-2-yl}-1H-imidazol-5-yl)-1,11-dihydroisochromeno[4′,3′:6,7]naphtho[1,2-d]imidazol-2-yl]-4-methylpyrrolidin-1-yl}-1-oxobutan-2-yl]carbamate] | 0.065 | 0.044 | < 0.1 | 0.028 | < 0.1 | 0.047 | < 0.1 | 0.1 to 0.999 | 0.199 | 0.13 | 0.1 to 0.999 | 0.035 | < 0.1 | 8.3 | 0.083 | < 0.1 | – | –
